Source: patent publication US20230105984A1, “COMPOSITIONS AND METHODS FOR THE TREATMENT OF LIVER DISEASES AND DISORDERS” (AXCELLA HEALTH INC., priority 2019, published 2023)

Assays:
[1] = test system: human primary hepatocytes; test: Intracellular lipid accumulation (steatosis) in primary human hepatocytes co-treated with sFA+TNF-α, LipidTOX fluorescence microscopy after 72h; assay type: cell-based; set-up: Rx effect (lipid): scale not given here; conditions: for Rx effect (Lipid: total lipid area subtracted from baseline sFA+TNFa, normalized to nuclei count): 72 h; for Rx effect (lipid): donor 2
Procedure: Hepatocyte lipotoxicity appears to be a central driver of hepatic cellular injury via oxidative stress and endoplasmic reticulum (ER) stress. The ability of amino acids combined to therapeutics agents (Rx) to influence steatosis (lipid accumulation) and inflammation in hepatocytes was assessed using human primary hepatocytes purchased from two sources: Lonza and Sekisui Xenotech. […] After 6 hours, cells were washed twice and incubated overnight at 37° C., 5% CO2 in hepatocytes plating media. On day 1, cells were washed twice and incubated for 24h in Hepatocytes defined medium (Corning) supplemented with 2mM Glutamax (Gibco), and 1x Penicillin/Streptomycin in the same conditions described above. […] The values are published in the Human Metabolome Database (Wishart DS, Tzur D, Knox C, et al., HMDB: the Human Metabolome Database. Nucleic Acids Res. 2007 Jan; 35(Database issue):[…]-6. 17202168; which is hereby incorporated by reference in its entirety). […] After 24 hours incubation, media was removed for chemokine analysis (MCP1) and the same co treatment was reapplied for an additional 48 hours for a total of 72 hours. After 72 hours, cells were washed twice with PBS 1x (Gibco), fixed with 4% Paraformaldehyde, and washed twice with PBS 1x (100 ul). […] The LipidTOXTM neutral lipid stain has an extremely high affinity for neutral lipid droplets that was detected by fluorescence microscopy using a high content imager (Molecular Devices). Lipid was normalized to the specific per well cell density determined by nuclei count.

[2] = test system: MCP1/CCL2 secretion; test: MCP1/CCL2 secretion by primary human hepatocytes co-treated with sFA+TNF-α, ELISA after 24h; assay type: cell-based; set-up: Rx effect / Rx effect (MCP1): scale not given here; conditions: for Rx effect: MCP1; for MCP1 level / MCP1 secretion compared to baseline (sFA+TNF-α): Results 1, donors 1 and 2, AA compositions at 20X
Procedure: Hepatocyte lipotoxicity appears to be a central driver of hepatic cellular injury via oxidative stress and endoplasmic reticulum (ER) stress. The ability of amino acids combined to therapeutics agents (Rx) to influence steatosis (lipid accumulation) and inflammation in hepatocytes was assessed using human primary hepatocytes purchased from two sources: Lonza and Sekisui Xenotech. Primary hepatocytes from two healthy human donor were seeded on day 0 at density of 60000 cells in 96 well optical microplates (Thermofisher) in hepatocyte plating media (William's E medium (Gibco) supplemented with 10% heat-inactivated FBS (Atlanta Bio), 2mM Glutamax (Gibco), and 0.2% Primocin (InVivoGen) and incubated for 6 hours at 37° C., 5% CO2. After 6 hours, cells were washed twice and incubated overnight at 37° C., 5% CO2 in hepatocytes plating media. On day 1, cells were washed twice and incubated for 24h in Hepatocytes defined medium (Corning) supplemented with 2mM Glutamax (Gibco), and 1x Penicillin/Streptomycin in the same conditions described above. On day 2, cells were washed twice with DPBS 1X (Gibco) and maintained in amino acid-free WEM (US Biologicals) containing a defined custom amino acid concentration based on the mean physiological concentrations in blood. The values are published in the Human Metabolome Database (Wishart DS, Tzur D, Knox C, et al., HMDB: the Human Metabolome Database. Nucleic Acids Res. 2007 Jan; 35(Database issue):[…]-6. 17202168; which is hereby incorporated by reference in its entirety). […] Cells were maintained in this defined pretreatment media for 24 hours at 37° C., 5% CO2. […] After 24 hours incubation, media was removed for chemokine analysis (MCP1) and the same co treatment was reapplied for an additional 48 hours for a total of 72 hours. Human CCL2 (MCP-1) was measured by ELISA (Human […] DuoSet ELISA, R&D Systems) at 1/20 dilution in 1X Reagent Diluent (Reagent Ancillary Kit 2, R&D Systems). Lipid was normalized to the specific per well cell density determined by nuclei count.

[3] = Results 1, donors 1 and 2, AA compositions at 20X

Compound | Rx effect (Lipid: total lipid area subtracted from baseline sFA+TNFa, normalized to nuclei count) ([1]; Donor 1, Rx Conc. 0.063 µM) | Rx effect (Lipid: total lipid area subtracted from baseline sFA+TNFa, normalized to nuclei count) ([1]; Donor 1, Rx Conc. 1.000 µM) | Rx effect (Lipid: total lipid area subtracted from baseline sFA+TNFa, normalized to nuclei count) ([1]; Donor 1, Rx Conc. 4.000 µM) | Rx effect (Lipid: total lipid area subtracted from baseline sFA+TNFa, normalized to nuclei count) ([1]; Donor 2, Rx Conc. 0.063 µM) | Rx effect (Lipid: total lipid area subtracted from baseline sFA+TNFa, normalized to nuclei count) ([1]; Donor 2, Rx Conc. 1.000 µM) | Rx effect (Lipid: total lipid area subtracted from baseline sFA+TNFa, normalized to nuclei count) ([1]; Donor 2, Rx Conc. 4.000 µM) | lipid level compared to baseline (sFA+TNFa) [1, 3] | Rx effect ([2]; donor 1, Rx 0.063 µM) | Rx effect ([2]; donor 1, Rx 1.000 µM) | Rx effect ([2]; donor 1, Rx 4.000 µM) | Rx effect ([2]; donor 2, Rx 0.063 µM) | MCP1 level / MCP1 secretion compared to baseline (sFA+TNF-α) [2] | also measured
Cc1cc(F)c(C(=O)Nc2cccc(-c3nncn3C(C)C)n2)cc1-n1cnc(C2CC2)c1 [Selonsertib, 5-(4-cyclopropyl-1H-imidazol-1-yl)-2-fluoro-N-(6-(4-isopropyl-4H-1,2,4-triazol-3-yl)pyridin-2-yl)-4-methylbenzamide] | -0.060 | -0.154 | -0.152 | -0.096 | -0.164 | -0.307 | slight reduction in lipid level | -0.167 | -0.503 | -0.552 | -0.306 | slight reduction in MCP1 secretion | lipid level compared to baseline (sFA+TNFa) ([1]; Results 2, donor 2): slight reduction in lipid level; Rx effect (lipid) ([1]; Rx 0.0625 µM): -0.024; Rx effect (lipid) ([1]; Rx 1 µM): -0.156; Rx effect (lipid) ([1]; Rx 4 µM): -0.178; Rx effect ([2]; donor 2, Rx 1.000 µM): -0.152; Rx effect ([2]; donor 2, Rx 4.000 µM): -0.462; MCP1 level / MCP1 secretion level compared to the baseline (sFA+TNF-α) ([2]; Results 2, donor 2): no change or a slight reduction in MCP1 secretion level; Rx effect (MCP1) ([2]; donor 2, Rx 0.0625 µM): 0.004; Rx effect (MCP1) ([2]; donor 2, Rx 1 µM): -0.411; Rx effect (MCP1) ([2]; donor 2, Rx 4 µM): -0.463
O=C(O)c1cc(F)c2nc(N3C4CC[C@H]3C[C@H](OCc3c(-c5ccccc5OC(F)(F)F)noc3C3CC3)C4)sc2c1 [Tropifexor, 2-[(3-endo)-3-[[5-cyclopropyl-3-[2-(trifluoromethoxy)phenyl]-4-isoxazolyl]methoxy]-8-azabicyclo[3.2.1]oct-8-yl]-4-fluoro-6-benzothiazolecarboxylic acid] | 0.169 | 0.185 | 0.214 | 0.132 | 0.083 | 0.049 | slight increase in lipid level | 0.956 | 0.877 | 0.658 | -0.16 | slight increase | –
